According to patent US7960349B2 (Bristol-Myers Squibb Company, priority 2006, dated 2011):
Values joined by “and” are separate entries in the source; they are usually repeats but may differ in a detail not shown here. Equal values may be shown once. Read-outs that look alike come from different tables or passages of the source. Where a SMILES comes first, the peptide text is derived from it. [ ]: non-standard residue; d: D form. The star is where a group is joined. ξ: configuration not given here. Ala(6-(2-MePh)pyridin-3-yl) = Cc1ccccc1-c1ccc(C[C@H](N)C(=O)O)cn1; Bip(2'-Et-4'-OMe) = CCc1cc(OC)ccc1-c1ccc(C[C@H](N)C(=O)O)cc1; Lactoyl(3-(imidazol-4-yl)) = O=C([C@@H](O)Cc1c[nH]cn1)*; Bip(2'-Me) = Cc1ccccc1-c1ccc(C[C@H](N)C(=O)O)cc1; ξαMePhe(2-F) = CC(N)(Cc1ccccc1F)C(=O)O; Thr(3ξ) = CC(O)[C@H](N)C(=O)O; ξαMeP = CC1(C(=O)O)CCCN1; Aib = CC(C)(N)C(=O)O

Columns and labels:
[1] = Exposure during ipGTT in ob/ob mice; format: in vivo, mouse; details: sc injection
Experimental: (§1) Peptides were dissolved in an appropriate vehicle at a concentration in nmol/ml equivalent to the dose that was to be administered in nmol/kg so that each mouse would receive the same volume/weight of dosing solution. Male C57BL/6-ob/ob mice (10 weeks old) were randomized into groups of 6 mice per group based on fed plasma glucose and body weight. After an overnight fast, mice were weighed and placed in the experimental lab. After 30 min in the environment, the mice were bled via tail tip at −30 min and immediately injected subcutaneously (sc) with vehicle or the peptide dissolved in vehicle (0.1 ml solution/100 g body weight). At time 0 the mice were bled and then injected intraperitoneally with 50% glucose (2 g/kg) to initiate the intraperitoneal glucose tolerance test (ipGTT). The mice were bled 30, 60, 120 and 180 min after the glucose injection. Blood samples were drawn into potassium EDTA, placed on ice during the study and subsequently centrifuged for 10 min at 3000 rpm at 4° C. Plasma samples were diluted 11-fold for glucose analysis in the Cobas System. Another 5 μl plasma sample was diluted 5-fold with 20 μl of Sample Diluent (Insulin ELISA assay kit, Crystal Chem. Inc.) and stored at −20° C. for subsequent analysis using the Ultra Sensitive Mouse Insulin ELISA kit (Crystal Chem Inc.).

[2] = Dog pharmacokinetic study; format: in vivo; details: for half-life: read-out: t½ (converted)
Experimental: The pharmacokinetic parameters of the Compounds of SEQ ID NO: 9, 118, 151 and 158 were determined in male beagle dogs (n=3-4, 14±1 kg). Following an overnight fast, each animal received the Compounds of SEQ ID NO: 9, 118, 151 and 158 either as an intravenous bolus via femoral vein (67 μg/kg) or by subcutaneous injection given at near the shoulder blades (67 μg/kg). Each animal received both intravenous and subcutaneous doses with a one-week washout between doses following a crossover design. The dosing vehicle for both routes of administration was propylene glycol:pH 7.4 phosphate buffer (50:50) or 0.2 M Tris (pH 8.0). Serial blood samples were collected in EDTA-containing microcentrifuge tubes at predose, 0.083, 0.25, 0.5, 0.75, 1, 2, 4, 6, 8, 24, and 30 hours post-dose after intravenous administration; at predose, 0.25, 0.5, 0.75, 1, 2, 4, 6, 8, 24, and 30 hours post-dose after subcutaneous administration. Approximately 0.3 mL of blood was collected at each time point. Blood samples were immediately centrifuged at 4° C. The obtained plasma was frozen with dry ice and stored at −20° C. Plasma drug levels were determined using the LC-MS/MS assay described below.
Plasma samples from the in vivo dog study were prepared for analysis by precipitating plasma proteins with two volumes of AcCN containing an internal standard. The samples were vortex mixed and the precipitated proteins were removed by centrifugation. The resulting supernatants were transferred to a 96-well plate and 10 μL were injected for TFC-LC/MS/MS analysis.
The TFC-HPLC system (Cohesive TX-1 Flux, Aria 2300 System) consisted of a loading pump, an eluting pump, and a CTC PAL autosampler (Cohesive Technologies, Franklin, Mass.). The columns used were Phenomenex Synergi Fusion-RP (C18, 2.0×50 mm, 4μ) (Phenomenex, Torrance, Calif.) as the analytical column and Turbo-Flow (TF) HTLC Cyclone column (0.5×50 mm) (Cohesive Technologies, Franklin, Mass.) as the extraction column for on-line sample processing. The mobile phase A consisted of 10 mM ammonium formate and 0.1% formic acid in water and mobile phase B consisted of 0.1% formic acid in AcCN. Turbo-Flow Chromatography was used to obtain a cleaner sample. A rapid gradient elution was used for analyte separation. The samples were injected onto the Turbo-Flow HTLC Cyclone column and analytes were separated from biological fluid components with using 100% H2O at 1.5 mL/min. The TF column was back flushed and analytes were back eluted from the TF to HPLC analytical column using a ramp to 60% B over 2 min and held there for 30 seconds at 0.3 mL/min to separate and to elute the analytes from the HPLC column into the mass spectrometer. Both columns were washed for an additional minute and then both columns were re-equilibrated at initial conditions.
The HPLC was interfaced to a Sciex API 4000 mass spectrometer (Applied Biosystems, Foster City, Calif.) and was equipped with a TurboIonspray ionization source. Ultra high purity nitrogen was used as the nebulizing and turbo-gas. The temperature of turbo-gas was set at 300° C. and the interface heater was set at 60° C. Selected Reaction Monitoring (SRM) was used for data acquisition. Multiple charged ion species, i.e. (M+2H)^2+ for Compound of SEQ ID NO: 158 were selected in Q1 and were collisionally dissociated with high purity nitrogen at a pressure of 3.5×10^−3 torr in Q2 to form specific product ions which were subsequently monitored in Q3. The ion transitions and voltages are summarized below (Table 4).
The standard curve concentrations, ranging from 1 to 1000 nM, were analyzed in duplicate. The curves were fitted with a linear regression weighted by reciprocal concentration […]. Quality control (QC) samples, prepared in blank matrix at the same concentrations as the standards were also analyzed in each analytical set. […]

[3] = test system: ob/ob mice; assay: Intraperitoneal glucose tolerance test (ipGTT) in ob/ob mice after sc injection; format: in vivo, mouse; details: for Potency in ob/ob mice: % AUC Reduction in Plasma Glucose in an IP Glucose Tolerance Test after SC Injection of Compound: 10 nmol/kg sc, relative to vehicle-treated group; for Potency in ob/ob mice ED50: sc injection, plasma glucose AUC in ipGTT; for effect on postprandial plasma insulin / effect on postprandial plasma glucose: sc; for effect on postprandial plasma glucose: 0 to 180 or 210 min
Experimental: as §1

[4] = dog, plasma, 67 ug/kg, male beagle dogs, intravenous 67 μg/kg
[5] = dog, plasma, sc, 67 ug/kg, male beagle dogs, subcutaneous 67 μg/kg
[6] = vehicle 0.2 M Tris buffer (pH 8.0)
[7] = vehicle propylene glycol/pH 7.4 phosphate buffer (1:1)
[8] = 30 nmol/kg sc, ipGTT ob/ob mice

Structure (SMILES): CCc1cc(OC)ccc1-c1ccc(C[C@H](NC(=O)[C@H](CC(=O)O)NC(=O)[C@H](CO)NC(=O)[C@@H](NC(=O)C(C)(Cc2ccccc2F)NC(=O)[C@@H](NC(=O)CNC(=O)[C@H](CCC(=O)O)NC(=O)C(C)(C)NC(=O)[C@@H](N)Cc2c[nH]cn2)C(C)O)C(C)O)C(=O)N[C@@H](Cc2ccc(-c3ccccc3C)nc2)C(N)=O)cc1 (stereo partly drawn) [SEQ ID NO: 9] (H-H[Aib]EG[Thr(3ξ)][ξαMePhe(2-F)][Thr(3ξ)]SD[Bip(2'-Et-4'-OMe)][Ala(6-(2-MePh)pyridin-3-yl)]-NH2)
- Exposure/dose during ipGTT in ob/ob mice [1]: 18 nM * h/nmol/kg
- AUC [2, 4]: 0.529 ± 0.125 µM·h
- MRT [2, 4]: 2.4 ± 0.5 h
- clearance ([2]; dog, plasma, 67 ug/kg, male beagle dogs, intravenous 67 μg/kg, read-out: CLp): 1.4 ± 0.4 mL/min/kg
- Vd ([2]; dog, plasma, 67 ug/kg, male beagle dogs, intravenous 67 μg/kg, read-out: Vss): 0.21 ± 0.07 L/kg
- half-life [2, 4]: 7.1 ± 2.1 h
- AUC [2, 5]: 0.452 ± 0.153 µM·h
- Cmax [2, 5]: 116 ± 34 nM
- MRT [2, 5]: 3.6 ± 1 h
- Tmax [2, 5]: 1.1 ± 0.6 h
- half-life [2, 5]: 2.6 ± 1.2 h
- bioavailability ([2]; dog, plasma, male beagle dogs, subcutaneous 67 μg/kg vs intravenous): 93 ± 22%
- Exposure in dogs (sc@67 μg/kg) [2, 6]: 0.452 µM·h
- Exposure in dogs (sc@67 μg/kg) [2, 7]: 1.23 µM·h
- Potency in ob/ob mice: % AUC Reduction in Plasma Glucose in an IP Glucose Tolerance Test after SC Injection of Compound [3]: −68% (p < 0.0001)
- maximum increase in postprandial plasma insulin AUC [3, 8]: 187.7%
- plasma glucose AUC decreased ([3]; 100 nmol/kg sc, ipGTT ob/ob mice): 85.8%
- Potency in ob/ob mice ED50 [3]: 5 nmol/kg
- Potency in ob/ob mice ED50 ([3]; listed as 9): ED50 = 5 nmoles/kg
- effect on postprandial plasma insulin ([3]; ipGTT ob/ob mice): significant increase
- effect on postprandial plasma glucose ([3]; ipGTT ob/ob mice): statistically significant decrease

Structure (SMILES): CCc1cc(OC)ccc1-c1ccc(C[C@H](NC(=O)[C@H](CC(=O)O)NC(=O)[C@H](CO)NC(=O)[C@@H](NC(=O)C(C)(Cc2ccccc2F)NC(=O)[C@@H](NC(=O)CNC(=O)[C@H](CCC(=O)O)NC(=O)C2(C)CCCN2C(=O)[C@@H](N)Cc2c[nH]cn2)[C@@H](C)O)[C@@H](C)O)C(=O)N[C@@H](Cc2ccc(-c3ccccc3C)nc2)C(N)=O)cc1 (stereo partly drawn) [SEQ ID NO: 118] (H-H[ξαMeP]EGT[ξαMePhe(2-F)]TSD[Bip(2'-Et-4'-OMe)][Ala(6-(2-MePh)pyridin-3-yl)]-NH2)
- Exposure/dose during ipGTT in ob/ob mice [1]: 4.4 nM * h/nmol/kg
- Exposure in dogs (sc@67 μg/kg) [2, 7]: 4.02 µM·h
- Potency in ob/ob mice: % AUC Reduction in Plasma Glucose in an IP Glucose Tolerance Test after SC Injection of Compound [3]: −70% (p < 0.001)
- plasma glucose AUC decreased [3, 8]: 81%
- Potency in ob/ob mice ED50 [3]: 2.5 nmol/kg
- Potency in ob/ob mice ED50 ([3]; listed as 118): ED50 = 2.5 nmoles/kg
- effect on postprandial plasma glucose ([3]; ipGTT ob/ob mice): statistically significant decrease

Structure (SMILES): CCc1cc(OC)ccc1-c1ccc(C[C@H](NC(=O)[C@H](CC(=O)O)NC(=O)[C@H](Cc2c[nH]cn2)NC(=O)[C@@H](NC(=O)C(C)(Cc2ccccc2F)NC(=O)[C@@H](NC(=O)CNC(=O)[C@H](CCC(=O)O)NC(=O)C2(C)CCCN2C(=O)[C@@H](O)Cc2c[nH]cn2)[C@@H](C)O)[C@@H](C)O)C(=O)N[C@@H](Cc2ccc(-c3ccccc3C)nc2)C(N)=O)cc1 (stereo partly drawn) [SEQ ID NO: 151] ({Lactoyl(3-(imidazol-4-yl))}-[ξαMeP]EGT[ξαMePhe(2-F)]THD[Bip(2'-Et-4'-OMe)][Ala(6-(2-MePh)pyridin-3-yl)]-NH2)
- Exposure/dose during ipGTT in ob/ob mice [1]: 16 nM * h/nmol/kg
- Exposure in dogs (sc@67 μg/kg) [2, 6]: 1.566 µM·h
- plasma glucose AUC decreased ([3]; 3 nmol/kg sc, ipGTT ob/ob mice): 67%
- Potency in ob/ob mice ED50 [3]: 1 nmol/kg and 2 nmol/kg
- Potency in ob/ob mice ED50 ([3]; listed as 151): ED50 = 1 nmoles/kg
- effect on postprandial plasma glucose ([3]; ipGTT ob/ob mice): statistically significant decrease

Structure (SMILES): CCc1cc(OC)ccc1-c1ccc(C[C@H](NC(=O)[C@H](CC(=O)O)NC(=O)[C@H](CO)NC(=O)[C@@H](NC(=O)C(C)(Cc2ccccc2F)NC(=O)[C@@H](NC(=O)CNC(=O)[C@H](CCC(=O)O)NC(=O)C(C)(C)NC(=O)[C@@H](N)Cc2c[nH]cn2)C(C)O)C(C)O)C(=O)N[C@@H](Cc2ccc(-c3ccccc3C)cc2)C(N)=O)cc1 (stereo partly drawn) [Compound I, reference compound] (H-H[Aib]EG[Thr(3ξ)][ξαMePhe(2-F)][Thr(3ξ)]SD[Bip(2'-Et-4'-OMe)][Bip(2'-Me)]-NH2)
- Exposure/dose during ipGTT in ob/ob mice [1]: 22 nM * h/nmol/kg
- Exposure in dogs (sc@67 μg/kg) [2, 7]: 0.089 µM·h
- Potency in ob/ob mice: % AUC Reduction in Plasma Glucose in an IP Glucose Tolerance Test after SC Injection of Compound [3]: −15% (p = 0.247, NS)
- effect on postprandial plasma insulin ([3]; ipGTT ob/ob mice): statistically significant dose-dependent increase
- effect on postprandial plasma glucose ([3]; ipGTT ob/ob mice): decreasing in a dose-dependent manner
